Reference: ChEMBL document CHEMBL4257451, “Synergism of fused bicyclic 2-aminothiazolyl compounds with polymyxin B against Klebsiella pneumoniae” (Medchemcomm, 2017)
Calls of active or inactive are those of the source. No cut-off for these calls is given here.

Columns and labels:
Klebsiella pneumoniae [1] = experiment: Synergistic antibacterial activity against Klebsiella pneumoniae KPN-2967 assessed as fold reduction in polymixin B MIC by broth microdilution method relative to polymixin B alone; format: functional
Acinetobacter baumannii [2] = experiment: Growth inhibition of Acinetobacter baumannii isolate 2 by broth microdilution method; format: organism-based
Klebsiella pneumoniae [3] = experiment: Growth inhibition of Klebsiella pneumoniae SIPI-KPN-1712 by broth microdilution method; format: organism-based; conditions: in vitro
Klebsiella pneumoniae [4] = experiment: Synergistic bactericidal activity against Klebsiella pneumoniae SIPI-KPN-1712 at 4 ug/ml in presence of 0.5 to 1 ug/ml polymixin B up to 24 hrs by time kill assay; format: functional, organism-based
Escherichia coli [5] = experiment: Synergistic antibacterial activity against Escherichia coli isolate 2944 assessed as polymixin B MIC at 4 ug/ml by broth microdilution method (reference value: 0.125 ug/ml); format: functional
Pseudomonas aeruginosa [6] = experiment: Synergistic antibacterial activity against Pseudomonas aeruginosa isolate 1292 in presence of polymixin B by broth microdilution method (reference value: 2 ug/ml); format: functional
Klebsiella pneumoniae [7] = experiment: Synergistic antibacterial activity against Klebsiella pneumoniae SIPI-KPN-1712 assessed as fold reduction in polymixin B MIC at 1 ug/ml by broth microdilution method relative to polymixin B alone; format: functional
Klebsiella pneumoniae [8] = experiment: Synergistic antibacterial activity against Klebsiella pneumoniae KPN-2677 in presence of polymixin B by broth microdilution method; format: functional
Pseudomonas aeruginosa [9] = experiment: Synergistic antibacterial activity against Pseudomonas aeruginosa isolate 1399 assessed as polymixin B MIC at 4 ug/ml by broth microdilution method (reference value: 1 ug/ml); format: functional
Acinetobacter baumannii [10] = experiment: Synergistic antibacterial activity against Acinetobacter baumannii isolate 2 in presence of polymixin B by broth microdilution method; format: functional
Klebsiella pneumoniae [11] = experiment: Synergistic antibacterial activity against Klebsiella pneumoniae SIPI-KPN-1712 assessed as fold reduction in polymixin B MIC at 2 ug/ml by broth microdilution method relative to polymixin B alone; format: functional
Acinetobacter baumannii [12] = experiment: Synergistic antibacterial activity against Acinetobacter baumannii isolate 2 assessed as polymixin B MIC at 4 ug/ml by broth microdilution method (reference value: 1 ug/ml); format: functional
Klebsiella pneumoniae [13] = experiment: Growth inhibition of Klebsiella pneumoniae KPN-2967 by broth microdilution method; format: organism-based; conditions: in vivo
Pseudomonas aeruginosa [14] = experiment: Synergistic antibacterial activity against Pseudomonas aeruginosa ATCC 27853 in presence of polymixin B by broth microdilution method (reference value: 1 ug/ml); format: functional
Acinetobacter baumannii [15] = experiment: Synergistic antibacterial activity against Acinetobacter baumannii isolate 3 in presence of polymixin B by broth microdilution method; format: functional
Escherichia coli [16] = experiment: Synergistic antibacterial activity against Escherichia coli ATCC 25922 assessed as polymixin B MIC at 4 ug/ml by broth microdilution method (reference value: 0.25 ug/ml); format: functional
Acinetobacter baumannii [17] = experiment: Synergistic antibacterial activity against Acinetobacter baumannii isolate 4 assessed as polymixin B MIC at 4 ug/ml by broth microdilution method (reference value: 0.5 ug/ml); format: functional
Klebsiella pneumoniae [18] = experiment: Synergistic antibacterial activity against Klebsiella pneumoniae SIPI-KPN-1712 assessed as polymixin B MIC at 4 ug/ml by broth microdilution method (reference value: 32 ug/ml); format: functional
Pseudomonas aeruginosa [19] = experiment: Synergistic antibacterial activity against Pseudomonas aeruginosa isolate 1399 in presence of polymixin B by broth microdilution method (reference value: 1 ug/ml); format: functional
Acinetobacter baumannii [20] = experiment: Synergistic antibacterial activity against Acinetobacter baumannii isolate 4 in presence of polymixin B by broth microdilution method; format: functional
Escherichia coli [21] = experiment: Synergistic antibacterial activity against Escherichia coli isolate 2945 assessed as polymixin B MIC at 4 ug/ml by broth microdilution method (reference value: 0.125 ug/ml); format: functional
Escherichia coli [22] = experiment: Synergistic antibacterial activity against Escherichia coli ATCC 25922 in presence of polymixin B by broth microdilution method; format: functional
Escherichia coli [23] = experiment: Synergistic antibacterial activity against Escherichia coli isolate 2944 in presence of polymixin B by broth microdilution method (reference value: 0.125 ug/ml); format: functional
Klebsiella pneumoniae [24] = experiment: Bactericidal activity against Klebsiella pneumoniae SIPI-KPN-1712 at 4 ug/ml up to 24 hrs by time kill assay; format: ADME, organism-based
Klebsiella pneumoniae [25] = experiment: Synergistic antibacterial activity against Klebsiella pneumoniae SIPI-KPN-1712 assessed as fold reduction in polymixin B MIC at 4 ug/ml by broth microdilution method relative to polymixin B alone; format: functional
Acinetobacter baumannii [26] = experiment: Synergistic antibacterial activity against Acinetobacter baumannii isolate 3 assessed as polymixin B MIC at 4 ug/ml by broth microdilution method (reference value: 0.5 ug/ml); format: functional
Acinetobacter baumannii [27] = experiment: Growth inhibition of Acinetobacter baumannii isolate 1 by broth microdilution method; format: organism-based
Klebsiella pneumoniae [28] = experiment: Synergistic antibacterial activity against Klebsiella pneumoniae KPN-2677 assessed as polymixin B MIC at 4 ug/ml by broth microdilution method (reference value: 0.5 ug/ml); format: functional
Klebsiella pneumoniae [29] = experiment: Synergistic bactericidal activity against Klebsiella pneumoniae SIPI-KPN-1712 at 4 ug/ml in presence of 2 to 4 ug/ml polymixin B up to 24 hrs by time kill assay; format: functional, organism-based
Escherichia coli [30] = experiment: Growth inhibition of Escherichia coli isolate 2944 by broth microdilution method; format: organism-based
Acinetobacter baumannii [31] = experiment: Growth inhibition of Acinetobacter baumannii isolate 3 by broth microdilution method; format: organism-based
Klebsiella pneumoniae [32] = experiment: Synergistic antibacterial activity against Klebsiella pneumoniae KPN-2967 in presence of polymixin B by broth microdilution method; format: functional
Pseudomonas aeruginosa [33] = experiment: Growth inhibition of Pseudomonas aeruginosa isolate 1399 by broth microdilution method; format: organism-based; conditions: in vivo
Escherichia coli [34] = experiment: Growth inhibition of Escherichia coli isolate 2945 by broth microdilution method; format: organism-based
Pseudomonas aeruginosa [35] = experiment: Synergistic antibacterial activity against Pseudomonas aeruginosa ATCC 27853 assessed as polymixin B MIC at 4 ug/ml by broth microdilution method (reference value: 1 ug/ml); format: functional
Acinetobacter baumannii [36] = experiment: Growth inhibition of Acinetobacter baumannii ATCC 19606 by broth microdilution method; format: organism-based, ATCC 19606 = CIP 70.34 = JCM 6841
Klebsiella pneumoniae [37] = experiment: Synergistic antibacterial activity against Klebsiella pneumoniae KPN-2967 assessed as polymixin B MIC at 4 ug/ml by broth microdilution method (reference value: 0.5 ug/ml); format: functional
Klebsiella pneumoniae [38] = experiment: Synergistic antibacterial activity against Klebsiella pneumoniae SIPI-KPN-1712 assessed as fractional Inhibitory concentration index in presence of polymixin B at 2 ug/ml by broth microdilution method; format: functional
Acinetobacter baumannii [39] = experiment: Synergistic antibacterial activity against Acinetobacter baumannii ATCC 19606 assessed as polymixin B MIC at 4 ug/ml by broth microdilution method (reference value: 0.5 ug/ml); format: functional; conditions: ATCC 19606 = CIP 70.34 = JCM 6841
Escherichia coli [40] = experiment: Growth inhibition of Escherichia coli ATCC 25922 by broth microdilution method; format: organism-based
Escherichia coli [41] = experiment: Synergistic antibacterial activity against Escherichia coli isolate 2945 in presence of polymixin B by broth microdilution method (reference value: 0.125 ug/ml); format: functional
Pseudomonas aeruginosa [42] = experiment: Synergistic antibacterial activity against Pseudomonas aeruginosa isolate 1292 assessed as polymixin B MIC at 4 ug/ml by broth microdilution method (reference value: 2 ug/ml); format: functional
Pseudomonas aeruginosa [43] = experiment: Growth inhibition of Pseudomonas aeruginosa ATCC 27853 by broth microdilution method; format: organism-based
Acinetobacter baumannii [44] = experiment: Growth inhibition of Acinetobacter baumannii isolate 4 by broth microdilution method; format: organism-based
Klebsiella pneumoniae [45] = experiment: Synergistic antibacterial activity against Klebsiella pneumoniae KPN-2677 assessed as fold reduction in polymixin B MIC by broth microdilution method relative to polymixin B alone; format: functional
Klebsiella pneumoniae [46] = experiment: Synergistic antibacterial activity against Klebsiella pneumoniae SIPI-KPN-1712 assessed as fold reduction in polymixin B MIC at 8 ug/ml by broth microdilution method relative to polymixin B alone; format: functional
Pseudomonas aeruginosa [47] = experiment: Growth inhibition of Pseudomonas aeruginosa isolate 1292 by broth microdilution method; format: organism-based; conditions: in vivo
Klebsiella pneumoniae [48] = experiment: Growth inhibition of Klebsiella pneumoniae KPN-2677 by broth microdilution method; format: organism-based
Acinetobacter baumannii [49] = experiment: Synergistic antibacterial activity against Acinetobacter baumannii isolate 1 assessed as polymixin B MIC at 4 ug/ml by broth microdilution method (reference value: 2 ug/ml); format: functional
Acinetobacter baumannii [50] = experiment: Synergistic antibacterial activity against Acinetobacter baumannii ATCC 19606 in presence of polymixin B by broth microdilution method; format: functional, ATCC 19606 = CIP 70.34 = JCM 6841
Acinetobacter baumannii [51] = experiment: Synergistic antibacterial activity against Acinetobacter baumannii isolate 1 in presence of polymixin B by broth microdilution method; format: functional
Klebsiella pneumoniae [52] = experiment: Synergistic antibacterial activity against Klebsiella pneumoniae SIPI-KPN-1712 assessed as fold reduction in polymixin B MIC at 16 ug/ml by broth microdilution method relative to polymixin B alone; format: functional

Compound: OC1CCCc2nc(Nc3ccc(Cl)cc3)sc21 (configuration not stated)
- fold change (FC) (Klebsiella pneumoniae [1]): 8
- MIC (Acinetobacter baumannii [2]): > 64 µg/mL
- MIC (Klebsiella pneumoniae [3]): > 128 µg/mL
- Activity (Klebsiella pneumoniae [4]): inactive
- MIC (Escherichia coli [5]): 0.125 µg/mL
- fractional inhibitory concentration index (FICI) (Pseudomonas aeruginosa [6]): 1.03
- fold change (FC) (Klebsiella pneumoniae [7]): 4
- fractional inhibitory concentration index (FICI) (Klebsiella pneumoniae [8]): 0.06
- MIC (Pseudomonas aeruginosa [9]): 1 µg/mL
- fractional inhibitory concentration index (FICI) (Acinetobacter baumannii [10]): 0.28
- fold change (FC) (Klebsiella pneumoniae [11]): 16
- MIC (Acinetobacter baumannii [12]): 1 µg/mL
- MIC (Klebsiella pneumoniae [13]): > 64 µg/mL
- fractional inhibitory concentration index (FICI) (Pseudomonas aeruginosa [14]): 1.03
- fractional inhibitory concentration index (FICI) (Acinetobacter baumannii [15]): 0.53
- MIC (Escherichia coli [16]): 0.25 µg/mL
- MIC (Acinetobacter baumannii [17]): 0.5 µg/mL
- MIC (Klebsiella pneumoniae [18]): 0.5 µg/mL
- fractional inhibitory concentration index (FICI) (Pseudomonas aeruginosa [19]): 0.53
- fractional inhibitory concentration index (FICI) (Acinetobacter baumannii [20]): 0.53
- MIC (Escherichia coli [21]): 0.125 µg/mL
- fractional inhibitory concentration index (FICI) (Escherichia coli [22]): 0.53
- fractional inhibitory concentration index (FICI) (Escherichia coli [23]): 0.28
- Activity (Klebsiella pneumoniae [24]): Non-Toxic
- fold change (FC) (Klebsiella pneumoniae [25]): 64
- MIC (Acinetobacter baumannii [26]): 0.5 µg/mL
- MIC (Acinetobacter baumannii [27]): > 64 µg/mL
- MIC (Klebsiella pneumoniae [28]): 0.5 µg/mL
- Activity (Klebsiella pneumoniae [29]): Active
- MIC (Escherichia coli [30]): > 64 µg/mL
- MIC (Acinetobacter baumannii [31]): > 64 µg/mL
- fractional inhibitory concentration index (FICI) (Klebsiella pneumoniae [32]): 0.16
- MIC (Pseudomonas aeruginosa [33]): > 64 µg/mL
- MIC (Escherichia coli [34]): > 64 µg/mL
- MIC (Pseudomonas aeruginosa [35]): 1 µg/mL
- MIC (Acinetobacter baumannii [36]): > 64 µg/mL
- MIC (Klebsiella pneumoniae [37]): 0.5 µg/mL
- fractional inhibitory concentration index (FICI) (Klebsiella pneumoniae [38]): 0.05
- MIC (Acinetobacter baumannii [39]): 0.5 µg/mL
- MIC (Escherichia coli [40]): > 64 µg/mL
- fractional inhibitory concentration index (FICI) (Escherichia coli [41]): 0.28
- MIC (Pseudomonas aeruginosa [42]): 2 µg/mL
- MIC (Pseudomonas aeruginosa [43]): > 64 µg/mL
- MIC (Acinetobacter baumannii [44]): > 64 µg/mL
- fold change (FC) (Klebsiella pneumoniae [45]): 32
- fold change (FC) (Klebsiella pneumoniae [46]): 128
- MIC (Pseudomonas aeruginosa [47]): > 64 µg/mL
- MIC (Klebsiella pneumoniae [48]): > 64 µg/mL
- MIC (Acinetobacter baumannii [49]): 2 µg/mL
- fractional inhibitory concentration index (FICI) (Acinetobacter baumannii [50]): 0.53
- fractional inhibitory concentration index (FICI) (Acinetobacter baumannii [51]): 0.53
- fold change (FC) (Klebsiella pneumoniae [52]): 128
